# Experimental data taken from publication PMC8371461 (Frontiers in Pharmacology, 2021).
# Assays:
# [1] = target: T1, STK33 (Homo sapiens, UniProt Q9BYT3); assay: kinome scan; type: binding; settings: 10 µM
# T1 construct: purchased DiscoverX (KINOMEscan)
# [2] = target: T2, HIPK3 (Homo sapiens, UniProt Q9H422); assay: kinome scan; type: binding; settings: 10 µM
# T2 construct: purchased DiscoverX (KINOMEscan)
# [3] = target: T3, ABL2 (Homo sapiens, UniProt P42684); assay: kinome scan; type: binding; settings: 10 µM
# T3 construct: purchased DiscoverX (KINOMEscan)
# [4] = target: T4, MAP4K5 (Homo sapiens, UniProt Q9Y4K4); assay: kinome scan; type: binding; settings: 10 µM
# T4 construct: purchased DiscoverX (KINOMEscan)
# [5] = target: T5, NEK1 (Homo sapiens, UniProt Q96PY6); assay: kinome scan; type: binding; settings: 10 µM
# T5 construct: purchased DiscoverX (KINOMEscan)
# [6] = target: T6, PIK3CA (Homo sapiens, UniProt P42336); assay: kinome scan; type: binding; settings: 10 µM
# T6 construct: purchased DiscoverX (KINOMEscan)
# [7] = target: T7, TBK1 (Homo sapiens, UniProt Q9UHD2); assay: kinome scan; type: binding; settings: 10 µM
# T7 construct: purchased DiscoverX (KINOMEscan)
# [8] = system: Cytochrome P450 3A4 isoform 1; parameters: method as in PubChem Bioassay ID 884; settings: reported activity, data mining; ref PubChem Bioassay ID 884; cited from earlier work
# [9] = target: T8, PIK3CA(M1043I) (Homo sapiens, UniProt P42336, M1043I); assay: kinome scan; type: binding; settings: 10 µM
# T8 construct: purchased DiscoverX (KINOMEscan)
# [10] = target: T9, EGFR(S752-I759del) (Homo sapiens, UniProt P00533, DEL752-759); assay: kinome scan; type: binding; settings: 10 µM
# T9 construct: purchased DiscoverX (KINOMEscan)
# [11] = system: PSC; assay: LC3B positive autophagosomes, immunofluorescent staining; type: cell-based, mouse; settings: 10 µM, three days
# Method: Cells were fixed with PBS containing 0.5% of para-formaldehyde for 15 min at room temperature. After three washing steps in PBS, cells were permeabilized with PBS containing 0.3% of Triton X-100 (Sigma) for 1 h at room temperature. After washing with PBS three times, cells were incubated overnight with the anti-LC3B antibody in PBS with 1% bovine serum albumin (Sigma) at 4°C. After three washing steps in PBS, cells were incubated with the fluorescent secondary antibody for 90 min at 4°C in PBS with 1% bovine serum albumin. They were then incubated with […] DAPI (Thermofisher) in PBS for 15 min. After washing with PBS, cells were rinsed once in water prior to mounting in the FluorSave reagent (Millipore).
# Depending of these transitory environmental conditions, autophagy can either promote survival or apoptosis ([Degtyarev et al., 2008]). PIK/AKT pathway inhibition has been reported to increase cell autophagy ([Palmieri et al., 2017]). More specifically, PIP4K2C has been described as a down-regulator of autophagy ([Sharma et al., 2019]).
# [12] = target: T10, CSNK1D (Homo sapiens, UniProt P48730); assay: kinome scan; type: binding; settings: 10 µM
# T10 construct: purchased DiscoverX (KINOMEscan)
# [13] = target: T11, FGFR4 (Homo sapiens, UniProt P22455); assay: kinome scan; type: binding; settings: 10 µM
# T11 construct: purchased DiscoverX (KINOMEscan)
# [14] = target: T12, IRAK1 (Homo sapiens, UniProt P51617); assay: kinome scan; type: binding; settings: 10 µM
# T12 construct: purchased DiscoverX (KINOMEscan)
# [15] = target: T13, FLT3(R834Q) (Homo sapiens, UniProt P36888, R834Q); assay: kinome scan; type: binding; settings: 10 µM
# T13 construct: purchased DiscoverX (KINOMEscan)
# [16] = target: T14, EPHB4 (Homo sapiens, UniProt P54760); assay: kinome scan; type: binding; settings: 10 µM
# T14 construct: purchased DiscoverX (KINOMEscan)
# [17] = target: T15, JNK3 (Homo sapiens, UniProt P53779); assay: kinome scan; type: binding; settings: 10 µM
# T15 construct: purchased DiscoverX (KINOMEscan)
# [18] = target: T16, PIK3CA(C420R) (Homo sapiens, UniProt P42336, C420R); assay: kinome scan; type: binding; settings: 10 µM
# T16 construct: purchased DiscoverX (KINOMEscan)
# [19] = target: T17, GCN2(Kin.Dom.2S808G) (Homo sapiens, UniProt Q9P2K8, S808G); assay: kinome scan; type: binding; settings: 10 µM
# T17 construct: GCN2(Kin.Dom.2S808G); purchased DiscoverX (KINOMEscan)
# [20] = target: T18, PIP5K1C (Homo sapiens, UniProt O60331); assay: kinome scan; type: binding; settings: 10 µM
# T18 construct: purchased DiscoverX (KINOMEscan)
# [21] = target: T19, JAK1(JH2domain-pseudokinase) (Homo sapiens, UniProt P23458); assay: kinome scan; type: binding; settings: 10 µM
# T19 construct: JAK1(JH2domain-pseudokinase); purchased DiscoverX (KINOMEscan)
# [22] = target: T20, BRK (Homo sapiens, UniProt Q13882); assay: kinome scan; type: binding; settings: 10 µM
# T20 construct: purchased DiscoverX (KINOMEscan)
# [23] = target: T21, MAP3K15 (Homo sapiens, UniProt Q6ZN16); assay: kinome scan; type: binding; settings: 10 µM
# T21 construct: purchased DiscoverX (KINOMEscan)
# [24] = target: T22, RET(M918T) (Homo sapiens, UniProt P07949, M918T); assay: kinome scan; type: binding; settings: 10 µM
# T22 construct: purchased DiscoverX (KINOMEscan)
# [25] = target: T23, CLK2 (Homo sapiens, UniProt P49760); assay: kinome scan; type: binding; settings: 10 µM
# T23 construct: purchased DiscoverX (KINOMEscan)
# [26] = target: T24, TAOK3 (Homo sapiens, UniProt Q9H2K8); assay: kinome scan; type: binding; settings: 10 µM
# T24 construct: purchased DiscoverX (KINOMEscan)
# [27] = target: T25, RIOK2 (Homo sapiens, UniProt Q9BVS4); assay: kinome scan; type: binding
# T25 construct: T7 phage fusion (kinase-tagged phage); purchased DiscoverX; host or cells: BL21-derived E. coli (T7 phage)
# [28] = target: T26, EGFR(L858R) (Homo sapiens, UniProt P00533, L858R); assay: kinome scan; type: binding; settings: 10 µM
# T26 construct: purchased DiscoverX (KINOMEscan)
# [29] = target: T27, TAOK1 (Homo sapiens, UniProt Q7L7X3); assay: kinome scan; type: binding; settings: 10 µM
# T27 construct: purchased DiscoverX (KINOMEscan)
# [30] = target: T28, PRKD1 (Homo sapiens, UniProt Q15139); assay: kinome scan; type: binding; settings: 10 µM
# T28 construct: purchased DiscoverX (KINOMEscan)
# [31] = target: T29, RET (Homo sapiens, UniProt P07949); assay: kinome scan; type: binding; settings: 10 µM
# T29 construct: purchased DiscoverX (KINOMEscan)
# [32] = target: T30, ROS1 (Homo sapiens, UniProt P08922); assay: kinome scan; type: binding; settings: 10 µM
# T30 construct: purchased DiscoverX (KINOMEscan)
# [33] = target: T31, BMPR1A (Homo sapiens, UniProt P36894); assay: kinome scan; type: binding; settings: 10 µM
# T31 construct: purchased DiscoverX (KINOMEscan)
# [34] = target: T32, EGFR(L747-S752delP753S) (Homo sapiens, UniProt P00533, DEL747-752/P753S); assay: kinome scan; type: binding; settings: 10 µM
# T32 construct: purchased DiscoverX (KINOMEscan)
# T32 sequence (P00533 with tags, fused parts or gaps DEL747-752/P753S limits assumed): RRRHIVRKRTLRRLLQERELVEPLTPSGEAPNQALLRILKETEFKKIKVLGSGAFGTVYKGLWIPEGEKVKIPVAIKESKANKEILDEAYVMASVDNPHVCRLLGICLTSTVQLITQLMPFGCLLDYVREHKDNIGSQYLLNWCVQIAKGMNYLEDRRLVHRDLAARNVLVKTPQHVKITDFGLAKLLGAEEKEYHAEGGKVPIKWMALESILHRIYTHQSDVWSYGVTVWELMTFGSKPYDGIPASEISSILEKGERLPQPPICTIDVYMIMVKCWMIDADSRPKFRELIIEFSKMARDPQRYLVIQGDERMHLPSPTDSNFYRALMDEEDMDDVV
# T25 sequence (Q9BVS4 whole entry, the tested form may be a part): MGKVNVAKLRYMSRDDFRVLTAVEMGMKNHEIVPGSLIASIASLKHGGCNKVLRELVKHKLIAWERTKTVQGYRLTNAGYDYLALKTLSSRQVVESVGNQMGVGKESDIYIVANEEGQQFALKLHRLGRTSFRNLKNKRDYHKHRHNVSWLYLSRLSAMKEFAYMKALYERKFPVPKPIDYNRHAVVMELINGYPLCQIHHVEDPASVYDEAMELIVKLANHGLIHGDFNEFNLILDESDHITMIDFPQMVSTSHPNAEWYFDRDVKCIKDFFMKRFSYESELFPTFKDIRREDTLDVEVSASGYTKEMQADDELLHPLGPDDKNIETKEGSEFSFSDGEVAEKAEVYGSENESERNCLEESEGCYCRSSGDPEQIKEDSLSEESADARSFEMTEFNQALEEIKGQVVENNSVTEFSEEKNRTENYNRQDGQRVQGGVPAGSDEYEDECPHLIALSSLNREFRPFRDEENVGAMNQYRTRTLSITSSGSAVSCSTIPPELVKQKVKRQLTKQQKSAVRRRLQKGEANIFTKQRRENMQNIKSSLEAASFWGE
# T8 sequence (P42336 whole entry M1043I): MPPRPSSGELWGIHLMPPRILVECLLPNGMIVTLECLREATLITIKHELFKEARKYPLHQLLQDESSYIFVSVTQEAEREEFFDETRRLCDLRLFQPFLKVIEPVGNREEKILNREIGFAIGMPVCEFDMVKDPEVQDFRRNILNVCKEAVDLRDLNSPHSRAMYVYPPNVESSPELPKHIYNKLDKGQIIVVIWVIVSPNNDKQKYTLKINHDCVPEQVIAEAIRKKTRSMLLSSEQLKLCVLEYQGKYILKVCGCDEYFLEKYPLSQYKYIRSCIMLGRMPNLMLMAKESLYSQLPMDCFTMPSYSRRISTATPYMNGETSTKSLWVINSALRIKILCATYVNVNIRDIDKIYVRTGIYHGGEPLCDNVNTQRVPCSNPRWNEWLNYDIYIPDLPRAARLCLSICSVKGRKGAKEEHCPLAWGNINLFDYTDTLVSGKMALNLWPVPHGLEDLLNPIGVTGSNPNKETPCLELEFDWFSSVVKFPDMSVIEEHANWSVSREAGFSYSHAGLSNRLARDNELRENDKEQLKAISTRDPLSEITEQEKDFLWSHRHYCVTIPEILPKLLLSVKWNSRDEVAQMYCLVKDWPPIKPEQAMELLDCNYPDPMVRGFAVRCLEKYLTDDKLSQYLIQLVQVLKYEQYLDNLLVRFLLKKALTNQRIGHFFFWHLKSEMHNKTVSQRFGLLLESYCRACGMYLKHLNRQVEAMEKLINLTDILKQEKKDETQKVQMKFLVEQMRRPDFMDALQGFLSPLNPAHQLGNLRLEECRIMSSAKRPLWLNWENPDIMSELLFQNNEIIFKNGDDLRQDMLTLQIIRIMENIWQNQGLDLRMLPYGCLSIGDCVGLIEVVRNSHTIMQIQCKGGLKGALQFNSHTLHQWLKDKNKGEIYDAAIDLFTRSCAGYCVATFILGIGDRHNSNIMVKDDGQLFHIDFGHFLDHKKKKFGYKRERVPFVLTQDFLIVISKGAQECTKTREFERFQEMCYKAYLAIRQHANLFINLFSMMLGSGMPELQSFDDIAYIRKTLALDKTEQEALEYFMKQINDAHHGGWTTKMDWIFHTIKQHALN
# T30 sequence (P08922 28-2347): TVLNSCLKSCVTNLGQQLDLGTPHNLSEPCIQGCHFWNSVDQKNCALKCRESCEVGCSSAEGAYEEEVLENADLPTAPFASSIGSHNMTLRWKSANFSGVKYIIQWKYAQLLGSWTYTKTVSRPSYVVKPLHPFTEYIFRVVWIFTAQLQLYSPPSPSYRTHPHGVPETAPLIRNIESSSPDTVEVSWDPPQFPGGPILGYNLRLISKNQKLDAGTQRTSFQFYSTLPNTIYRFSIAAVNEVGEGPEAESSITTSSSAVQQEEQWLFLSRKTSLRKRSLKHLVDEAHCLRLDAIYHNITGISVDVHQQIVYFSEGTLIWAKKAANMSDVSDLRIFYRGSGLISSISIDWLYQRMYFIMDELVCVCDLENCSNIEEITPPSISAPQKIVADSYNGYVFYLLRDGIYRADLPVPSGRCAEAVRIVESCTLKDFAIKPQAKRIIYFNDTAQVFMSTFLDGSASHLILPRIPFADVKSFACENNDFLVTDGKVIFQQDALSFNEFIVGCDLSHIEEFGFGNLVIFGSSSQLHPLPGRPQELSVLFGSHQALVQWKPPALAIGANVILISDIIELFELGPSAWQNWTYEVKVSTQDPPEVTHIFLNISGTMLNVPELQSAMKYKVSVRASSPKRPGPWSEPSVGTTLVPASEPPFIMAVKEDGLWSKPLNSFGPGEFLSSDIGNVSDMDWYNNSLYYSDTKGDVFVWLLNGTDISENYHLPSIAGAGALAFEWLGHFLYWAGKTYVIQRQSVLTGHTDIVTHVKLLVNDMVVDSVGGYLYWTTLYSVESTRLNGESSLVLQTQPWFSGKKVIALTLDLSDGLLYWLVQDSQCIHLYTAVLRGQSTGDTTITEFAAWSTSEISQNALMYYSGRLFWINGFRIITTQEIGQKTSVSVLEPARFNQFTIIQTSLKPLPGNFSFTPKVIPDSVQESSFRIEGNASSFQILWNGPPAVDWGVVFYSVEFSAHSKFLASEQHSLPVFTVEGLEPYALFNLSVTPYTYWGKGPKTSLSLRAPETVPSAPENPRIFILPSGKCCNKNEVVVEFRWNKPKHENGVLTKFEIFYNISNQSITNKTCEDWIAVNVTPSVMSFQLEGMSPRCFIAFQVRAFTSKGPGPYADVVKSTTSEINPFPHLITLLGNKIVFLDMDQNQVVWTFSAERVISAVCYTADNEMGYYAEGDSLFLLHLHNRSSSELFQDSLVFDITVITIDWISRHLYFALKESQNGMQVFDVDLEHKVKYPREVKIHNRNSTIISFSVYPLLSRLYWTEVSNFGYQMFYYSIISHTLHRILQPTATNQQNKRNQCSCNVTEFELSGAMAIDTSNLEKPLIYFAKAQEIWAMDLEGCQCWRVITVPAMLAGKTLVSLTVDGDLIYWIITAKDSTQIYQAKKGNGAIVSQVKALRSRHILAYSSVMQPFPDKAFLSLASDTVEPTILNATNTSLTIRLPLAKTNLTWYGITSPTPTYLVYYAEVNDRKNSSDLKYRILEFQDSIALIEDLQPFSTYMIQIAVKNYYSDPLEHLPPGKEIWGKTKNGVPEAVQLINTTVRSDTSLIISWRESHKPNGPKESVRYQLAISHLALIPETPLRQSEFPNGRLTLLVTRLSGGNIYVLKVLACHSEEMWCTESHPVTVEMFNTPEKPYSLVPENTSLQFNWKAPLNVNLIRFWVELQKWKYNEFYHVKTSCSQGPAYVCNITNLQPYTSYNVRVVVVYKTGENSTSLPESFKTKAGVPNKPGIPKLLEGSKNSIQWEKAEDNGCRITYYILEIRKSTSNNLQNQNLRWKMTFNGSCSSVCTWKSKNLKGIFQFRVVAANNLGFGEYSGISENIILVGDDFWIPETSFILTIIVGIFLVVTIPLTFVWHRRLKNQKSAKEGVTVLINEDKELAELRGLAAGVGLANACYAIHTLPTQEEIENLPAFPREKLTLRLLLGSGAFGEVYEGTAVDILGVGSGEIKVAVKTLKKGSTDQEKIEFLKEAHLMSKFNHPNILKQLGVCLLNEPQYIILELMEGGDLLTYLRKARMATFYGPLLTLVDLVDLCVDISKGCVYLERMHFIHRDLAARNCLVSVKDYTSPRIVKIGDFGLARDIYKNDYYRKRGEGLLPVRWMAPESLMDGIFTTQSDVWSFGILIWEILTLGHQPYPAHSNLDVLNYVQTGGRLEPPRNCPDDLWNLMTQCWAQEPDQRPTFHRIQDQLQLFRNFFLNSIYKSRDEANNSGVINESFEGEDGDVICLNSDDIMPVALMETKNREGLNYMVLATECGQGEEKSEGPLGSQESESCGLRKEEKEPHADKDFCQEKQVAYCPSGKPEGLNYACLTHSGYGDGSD
# T17 sequence (Q9P2K8 590-1001 S808G limits assumed): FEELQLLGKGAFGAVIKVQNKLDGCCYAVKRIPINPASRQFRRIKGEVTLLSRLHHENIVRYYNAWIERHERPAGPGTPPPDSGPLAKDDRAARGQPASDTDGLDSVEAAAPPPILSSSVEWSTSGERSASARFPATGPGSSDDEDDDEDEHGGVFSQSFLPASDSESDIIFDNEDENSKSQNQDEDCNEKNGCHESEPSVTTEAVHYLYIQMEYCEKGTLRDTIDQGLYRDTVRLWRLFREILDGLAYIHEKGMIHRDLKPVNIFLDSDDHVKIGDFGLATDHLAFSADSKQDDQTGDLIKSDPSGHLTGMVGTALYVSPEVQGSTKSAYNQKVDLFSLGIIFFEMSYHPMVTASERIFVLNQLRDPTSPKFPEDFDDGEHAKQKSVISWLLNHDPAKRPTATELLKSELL
# T16 sequence (P42336 whole entry C420R): as the sequence (P42336 whole entry M1043I) above, with C420R, I1043M counted along it
# T19 sequence (P23458 561-855 limits assumed): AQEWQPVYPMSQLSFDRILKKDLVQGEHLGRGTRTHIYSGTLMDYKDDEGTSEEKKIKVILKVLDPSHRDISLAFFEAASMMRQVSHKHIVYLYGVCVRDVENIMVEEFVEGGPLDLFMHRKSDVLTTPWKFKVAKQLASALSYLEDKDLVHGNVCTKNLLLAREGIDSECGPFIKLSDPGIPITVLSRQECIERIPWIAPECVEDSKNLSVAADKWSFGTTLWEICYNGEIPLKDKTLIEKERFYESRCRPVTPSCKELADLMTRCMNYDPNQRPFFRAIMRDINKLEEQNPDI
# T6 sequence (P42336 whole entry): as the sequence (P42336 whole entry M1043I) above, with I1043M counted along it
smiles,measurement,setting,value
"Nc1ccc(N=Nc2ccccc2)c(N)n1 [phenazopyridine, 2,6-diamino-3-(phenylazo)pyridine]",kinase inhibition,[1],100
same,kinase inhibition,[2],98
same,kinase inhibition,[3],96
same,kinase inhibition,[4],100
same,kinase inhibition,[5],100
same,kinase inhibition,[6],84
same,kinase inhibition,[7],100
same,Concentration,[8],0.1 µM
same,kinase inhibition,[9],100
same,kinase inhibition,[10],97
same,number of LC3B-positive autophagosomes,[11],increased
same,kinase inhibition,[12],50
same,kinase inhibition,[13],91
same,kinase inhibition,[14],100
same,remaining binding (% of control),[15],89
same,kinase inhibition,[16],95
same,kinase inhibition,[17],91
same,kinase inhibition,[18],100
same,remaining binding (% of control),[19],100
same,kinase inhibition,[20],42
same,kinase inhibition,[21],32
same,kinase inhibition,[22],100
same,kinase inhibition,[23],94
same,kinase inhibition,[24],100
same,kinase inhibition,[25],75
same,kinase inhibition,[26],79
same,remaining binding (% of control),[27]; 10 µM,0
same,remaining binding at 10 µM,[27]; read-out: % Of control,0%
same,kinase inhibition,[28],100
same,kinase inhibition,[29],93
same,kinase inhibition,[30],100
same,kinase inhibition,[31],100
same,kinase inhibition,[32],100
same,kinase inhibition,[33],98
same,kinase inhibition,[34],73
